Data reported in paper PMC11267363, “Supramolecular Nanofibers Ameliorate Bleomycin‐Induced Pulmonary Fibrosis by Restoring Autophagy” (Advanced Science, 2024).
Ends that are not written are not given here.

Legend:
[1] = biological target: bovine serum albumin (BSA) (Bos taurus, UniProt P02769); assay: Microscale thermophoresis (MST) binding to BSA (negative control protein); settings: BSA as negative control
Experimental: To determine the effects of the self‐assembly factor “Ac‐GFFY” on the secondary structure of the A2 peptide fragment, Circular dichroism (CD) and Fourier transform infrared (FTIR) measurements were performed. […] We subsequently assessed the binding affinity between Ac‐GFFY‐A2 or A2 peptides to the human TRB3 protein or bovine serum albumin (BSA) using microscale thermophoresis (MST) assay, with BSA serving as the control group. […] Therefore, we labeled the peptide with the fluorescence group 7‐nitro‐1,2,3‐benzoxadiazole (NBD) to determine the cellular uptake via flow cytometer. The NBD‐labeled peptide was incubated with both of normal and activated MRC‐5 cells for 4 h, respectively. […] Collectively, under the action of supramolecular self‐assembly, the peptide assemblies with stable secondary conformation can not only be effectively absorbed by MRC‐5 cells but also have the potential to interfere with TRB3/p62 PPIs.
HR‐MS (Varian QFT‐ESI) was used to characterize the molecular weight of compounds. TEM (JEM100CXII) was performed at the Tecnai G2 F20 system, operating at 100 kV. Circular dichroism (CD) spectrum was obtained by a BioLogic (MOS‐450) system. Dynamic light scattering was measured by a ZETAPALS/BI‐200SM (BROOKHAVEN) system. Confocal laser scanning microscopy (CLSM) was measured by Leica TCS SP‐5. Flow cytometry (BD, FACS) was used to detect the cellular uptake. […]

MRC-5 cells = assay: Western blot of α-SMA, Col 1 and fibronectin in TGF-β1 treated MRC-5 cells; assay type: cell-based, human; settings: MRC-5 cells treated with TGF-β1, western blot, n = 3
Description: The progression of pulmonary fibrosis is closely associated with impaired autophagic flux by promoting the differentiation of fibroblast into myofibroblast. Given that Ac‐GFFY‐A2 peptide nanofibers have ability to restore the impaired autophagy, we proceeded to investigate their potential anti‐fibrotic effect. Fibroblasts and myofibroblasts are activated after tissue injury and in IPF patients, leading to increased ECM production and enhanced fibroblast migratory capacity.
Western blot analysis and co-immunoprecipitation
Total proteins were exacted from cells or tissues with RIPA lysis buffer (Beyotime Biotecnology). The protein concentration was measured using BCA Protein Assay Kit (Thermo Scientific). Equal amounts of lysates were resolved by SDS–PAGE. The protein transferred PVDF membranes were incubated with following primary antibodies at 4°C overnight: Then the membranes were incubated with horseradish peroxidase (HRP)-conjugated secondary antibodies at room temperature for 1 h, and protein signals were detected using an enhanced chemiluminescence kit (Pierce). […] The co -precipitates were resolved using SDS–PAGE and detected with immunoblotting. […]
The mice were then intravenously injected with 200 μL of sulfo-Cy5 labeled peptide (0.3 mg per mouse). Fluorescence imaging was performed using a IVIS Lumina II imaging (PerkinElmer, USA) at different time point post injection. […]

bovine serum albumin (BSA), sequence (P02769 25-607): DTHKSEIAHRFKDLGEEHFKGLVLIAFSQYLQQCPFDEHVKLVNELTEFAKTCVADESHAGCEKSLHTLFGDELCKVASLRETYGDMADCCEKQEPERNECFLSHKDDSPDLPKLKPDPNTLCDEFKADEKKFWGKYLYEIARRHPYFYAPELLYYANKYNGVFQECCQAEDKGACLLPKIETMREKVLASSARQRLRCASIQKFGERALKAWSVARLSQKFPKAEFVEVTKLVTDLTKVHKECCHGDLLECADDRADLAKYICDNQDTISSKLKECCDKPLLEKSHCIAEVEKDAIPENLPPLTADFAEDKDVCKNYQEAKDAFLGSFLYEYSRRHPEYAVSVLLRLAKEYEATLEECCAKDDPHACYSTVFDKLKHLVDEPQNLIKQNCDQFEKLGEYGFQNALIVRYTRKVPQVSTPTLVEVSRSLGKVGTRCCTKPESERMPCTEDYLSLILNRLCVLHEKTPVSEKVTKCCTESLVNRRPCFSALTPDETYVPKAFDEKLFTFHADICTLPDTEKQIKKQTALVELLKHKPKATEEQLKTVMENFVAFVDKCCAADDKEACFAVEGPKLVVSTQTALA

Substance | binding with BSA [1] | protein expression of α-SMA, col 1 and fibronectin (MRC-5 cells)
Ac-GFFYGGWLTRLLQTK-OH [Ac-GFFY-A2] | no binding | remarkably reduced
GGWLTRLLQTK-OH [A2, reference compound] | no binding | hardly inhibited fibroblast to myofibroblast differentiation
